In patent publication US5728830A, “Farnesyltransferase inhibitor” (Kyowa Hakko Kogyo Co., Ltd., priority 1993, dated 1998):
Converted amounts (≈) assume the structure as drawn. Where two headings read alike, the source gives them in different places.

Legend:
BALB 3T3/H-ras cells = assay: Anticell Activity (growth inhibition of BALB 3T3 cells transformed by the oncogene H-ras, Giemsa staining); format: cell-based; settings: Mus musculus, 72 hours, read-out: IC50 Anti-BALB 3T3/H-ras Cell Activity
Procedure: The anticell activity was measured using BALB 3T3 cells transformed by the oncogene H-ras (hereinafter referred to as BALB 3T3/H-ras cells).
BALB 3T3/H-ras cells were suspended in a DME medium (Nissui) containing 10% bovine fetal serum (hereinafter referred to as medium A) to a cell concentration of 3.0×10^4 cells/ml. Each well of a 96-well microtiter plate was inoculated with 0.1 ml of the cell suspension, and the system was cultured in a CO2 gas incubator at 37° C. for 20 hours. To each well was added 0.1 ml of a sample (test compound) diluted appropriately with medium A, followed by culturing in the CO2 gas incubator at 37° C. for 72 hours. The culture supernatant was removed, and the residue was washed once with physiological saline and treated with 0.1 ml of methanol for 10 minutes to immobilize the cells. The cells were stained with 0.1 ml of a Giemsa staining solution [Giemsa staining stock solution Merck Art9204 (Merck & Co., Inc.):physiological saline=1:10] for 5 minutes. The staining solution was removed, and the residue was washed once with 0.2 ml of water. The pigment was extracted with 0.2 ml of 0.1N hydrochloric acid, and the absorbance at 620 nm was measured with a microplate reader.

[1] = target: T1, farnesyltransferase (FTase) (Bos taurus, UniProt P29702+P49355); assay: Farnesyltransferase Inhibitory Activity ([3H]SPA FTase assay, farnesylation of C-terminal peptide of lamin B); format: biochemical; settings: bovine brain crude enzyme
T1 construct: An extract of minced bovine brain was subjected to column chromatography on DEAE-Sephacel (Pharmacia); from tissue; host or cells: bovine brain
Procedure: Farnesyltransferase Inhibitory Activity
An extract of minced bovine brain was subjected to column chromatography on DEAE-Sephacel (Pharmacia). The active fraction was concentrated by ultrafiltration and dialyzed against a mixture of 20 mM Tris-HCl (pH 8.0), 50 mM NaCl, […], 1 mM dithiothreitol (DTT), and 0.2 mM phenylmethylsulfonyl fluoride (PMSF). The resulting dialysate was used as a crude enzyme liquid of farnesyltransferase (FTase). The measurement of activity was carried out by means of an FTase [^3 H]SPA enzyme assay kit (Amersham) using the enzyme obtained by the above method.

[2] = test system: isogenic tumor in K-BALB mice; assay: Antitumor Activity on Isogenic Tumor System in K-BALB Mice; format: in vivo; settings: intraperitoneal, 5 consecutive days from 7th day after transplantation, BALB/c mouse
Procedure: Antitumor Activity on Isogenic Tumor System in K-BALB Mice
The antitumor activity on an isogenic tumor system in K-BALB mice was measured according to the method described in Proc. Natl. Acad. Sci., 90, 2281 (1993). That is, an isogenic tumor in K-BALB mice was resected from a donor mouse, and a 2×2×2 (8) mm^3 tumor piece was transplanted to the subcutaneous site of the abdomen of a BALB/c mouse by means of a trocar. After the graft survival was confirmed on the 7th day from the transplantation, a test compound was intraperitoneally administered for 5 consecutive days from the same day. The longer diameter and shorter diameter of the tumor were measured with a sliding gauge, and the tumor volume was calculated according to the formula; (longer diameter)×(shorter diameter)^2 /2 [Cancer Chemother. Rep., Part III, 3, 1 (1972)]. The antitumor effect was evaluated in terms of T/C, the ratio of the tumor volume of a test compound-treated group (T) to that of an untreated group (C).

[3] = test system: Candida albicans ATCC 10231; assay: Antibacterial Activity, agar dilution method, Candida albicans; format: cell-based
Procedure: (§1) The antibacterial activity was measured by the agar dilution method using a medium (pH 7) prepared by dissolving 3 g of Bacto-tryptone (Difco), 3 g of meat extract, 1 g of yeast extract, 1 g of glucose, and 16 g of agar in 1 liter of water. The antibacterial activity of Compounds I are expressed in terms of minimum growth inhibitory concentration (MIC).
CA; Candida albicans ATCC 10231

[4] = test system: Bacillus subtilis No. 10707; assay: Antibacterial Activity, agar dilution method, Bacillus subtilis; format: cell-based
Procedure: as §1
BS; Bacillus subtilis No. 10707

[5] = test system: Enterococcus faecium ATCC 10541; assay: Antibacterial Activity, agar dilution method, Enterococcus faecium; format: cell-based
Procedure: as §1
EF; Enterococcus faecium ATCC 10541

[6] = ATCC10231, Candida albicans ATCC 10231, agar dilution, pH 7, read-out: MIC CA
[7] = Bacillus subtilis No. 10707, agar dilution, pH 7, read-out: MIC BS
[8] = Candida albicans, ATCC10231, pH 7, read-out: MIC CA
[9] = Bacillus subtilis, NO.10707, pH 7, read-out: MIC BS
[10] = Enterococcus faecium, ATCC10541, pH 7, read-out: MIC EF

SMILES | IC50 (BALB 3T3/H-ras cells) [µM] | IC50 [1] [µM] | MIC [4, 9] [µg/mL] | other results
CC(=O)SC1C(=O)N(c2ccccc2)C(SC(C)=O)C(=O)N1C (centres unmarked) [Compound I-1] | 0.2 | 5 |  | 
COc1ccccc1N1C(=O)C(SC(C)=O)N(C)C(=O)C1SC(C)=O (centres unmarked) [Compound I-2] | 0.5 | 9 |  | 
COc1ccc(Br)cc1N1C(=O)C(SC(C)=O)N(C)C(=O)C1SC(C)=O (centres unmarked) [Compound I-3] | 1.5 | 9 |  | 
CC(=O)SC1C(=O)N(c2ccccc2)C(SC(C)=O)C(=O)N1c1ccccc1 (centres unmarked) [Compound I-4] | 0.9 | 12 |  | T/C (ratio of tumor volume, treated to untreated) ([2]; 5.0 mg/kg): 0.41
COCN1C(=O)C(SC(C)=O)N(COC)C(=O)C1SC(C)=O (centres unmarked) [Compound I-5] | 0.4 | 8 |  | 
CC(=O)SC1C(=O)N(Cc2ccccc2)C(SC(C)=O)C(=O)N1Cc1ccccc1 (centres unmarked) [Compound I-6] | 4 | 7 |  | MIC [3, 6]: 10 µg/mL (≈ 22.6 µM); MIC [4, 7]: 21 µg/mL (≈ 47.5 µM); MIC ([5]; ATCC10541, Enterococcus faecium ATCC 10541, agar dilution, pH 7, read-out: MIC EF): 42 µg/mL (≈ 94.9 µM)
CN1C(=O)C2SSC1C(=O)N2c1ccccc1 (centres unmarked) [Compound I-7] | 0.2 | 60 |  | 
O=C1C2SSC(C(=O)N2c2ccccc2)N1c1ccccc1 [Compound I-8] | 0.7 | 10 |  | 
O=C(SC1C(=O)N(c2ccccc2)C(SC(=O)c2ccccc2)C(=O)N1c1ccccc1)c1ccccc1 (centres unmarked) [Compound I-9] | 3 | 9 |  | 
O=C(Oc1ccccc1)SC1C(=O)N(c2ccccc2)C(SC(=O)Oc2ccccc2)C(=O)N1c1ccccc1 (centres unmarked) [Compound I-10] | 1 | 25 |  | MIC [3, 6]: 42 µg/mL (≈ 73.6 µM)
CN1C(=O)C2SSC1(COCc1ccccc1)C(=O)N2c1ccccc1 (centres unmarked) [Compound I-11] | 3 | 3 | 7.3 (≈ 18.9 µM) | MIC [3, 8]: 0.46 µg/mL (≈ 1.19 µM)
CN1C(=O)C2(COCc3ccccc3)SSC1(COCc1ccccc1)C(=O)N2c1ccccc1 (centres unmarked) [Compound I-12] | 1 | 3 | 42 (≈ 82.9 µM) | MIC [3, 8]: 42 µg/mL (≈ 82.9 µM)
CN1C(=O)C2SSC1(CO)C(=O)N2c1ccccc1 (centres unmarked) [Compound I-13] | 0.1 | 5 | 0.041 (≈ 0.138 µM) | MIC [3, 8]: 42 µg/mL (≈ 142 µM); T/C (ratio of tumor volume, treated to untreated) ([2]; 0.75 mg/kg): 0.44; MIC [5, 10]: 0.16 µg/mL (≈ 0.54 µM)
COc1ccccc1N1C(=O)C2(CO)SSC1C(=O)N2C (centres unmarked) [Compound I-14] | 0.3 | 6 | 7.3 (≈ 22.4 µM) | 
COc1ccccc1N1C(=O)C2(CO)SSC1(CO)C(=O)N2C (centres unmarked) [Compound I-15] | 0.3 | 7 | 0.33 (≈ 0.926 µM) | MIC [5, 10]: 1.3 µg/mL (≈ 3.65 µM)
CC(=O)OCC1(SC(C)=O)C(=O)N(c2ccccc2)C(SC(C)=O)C(=O)N1C (centres unmarked) [Compound I-16] | 1.7 | 20 | 5.2 (≈ 12.2 µM) | MIC [5, 10]: 42 µg/mL (≈ 98.9 µM)
COCN1C(=O)C(SC(=O)Oc2ccccc2)N(COC)C(=O)C1SC(=O)Oc1ccccc1 (centres unmarked) [Compound I-17] | 0.3 | 5 |  | MIC [4, 7]: 42 µg/mL (≈ 82.9 µM)
O=C1C2SSC(C(=O)N2Cc2ccccc2)N1Cc1ccccc1 [Compound I-19] |  | 7 | 83 (≈ 233 µM) | MIC [3, 8]: 2.6 µg/mL (≈ 7.29 µM); MIC [5, 10]: 83 µg/mL (≈ 233 µM)
CCOC(=O)SC1C(=O)N(c2ccccc2)C(SC(=O)OCC)C(=O)N1c1ccccc1 (centres unmarked) [Compound I-20] |  | 45 |  | 
CN1C(=O)C2(CO)SSC1(CO)C(=O)N2c1ccccc1 (centres unmarked) [Compound I-21] | 0.2 | 3 | 21 (≈ 64.3 µM) | MIC [5, 10]: 0.33 µg/mL (≈ 1.01 µM)
